Laboratory results reported in patent US20250195530A1, “POLQ INHIBITORS” (ASTRAZENECA AB, priority 2022, published 2025).

Tested on: DLD-1 BRCA2−/− cells
Assay: Homologous recombination synthetic lethal inhibition of proliferation, DLD-1 BRCA2-/- (Cell Titre Glo 3D)
Assay type: cell-based
Conditions: DLD-1 BRCA2−/− cells, 12 days
Summary of the method: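 Cells are seeded in RPMI 1640 (phenol red free, 10% FBS, GlutaMAX) onto pre-dosed compound (10 μM to 0.51 nM, three-fold). Plates are incubated at 37 °C, and medium plus compound are refreshed on day 6. Viability is read by CellTiter-Glo 3D at day 7 (DLD-1) or day 12 (DLD-1 BRCA2−/−), and the IC50 is fitted.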

Row | Structure (SMILES) | POLQ PD Prolif Lumin BRCA2 −/− mean pIC50
1 | CC1NCCN(CCOc2ccc(-c3nc4c(OC5(C)CC5)ncnc4n3Cc3ccccc3)c(Cl)c2)C1=O (single isomer, unassigned; isomer 2) [Example R14, 1-(2-(4-(9-benzyl-6-(1-methylcyclopropoxy)-9H-purin-8-yl)-3-chlorophenoxy)ethyl)-3-methylpiperazin-2-one (Isomer 2)] | 6.8

Same assay, conditions: Homo sapiens, DLD-1, 288 h, DLD-1 BRCA2−/− cells, 12 days; read-out: POLQ PD Prolif Lumin BRCA2 −/− mean pIC50 (converted)

Row | Structure (SMILES) | IC50 [µM]
2 | CC1NCCN(CCOc2ccc(-c3nc4c(OC5(C)CC5)ncnc4n3Cc3ccccc3)c(Cl)c2)C1=O (single isomer, unassigned; isomer 1) [Example R13, 1-(2-(4-(9-benzyl-6-(1-methylcyclopropoxy)-9H-purin-8-yl)-3-chlorophenoxy)ethyl)-3-methylpiperazin-2-one (Isomer 1)] | 0.2
3 | CC1(Oc2ncnc3c2nc(-c2ccc(OCCNC(=O)CO)cc2Cl)n3Cc2ccccc2)CC1 [Example D26, N-(2-(4-(9-benzyl-6-(1-methylcyclopropoxy)-9H-purin-8-yl)-3-chlorophenoxy)ethyl)-2-hydroxyacetamide] | 0.1
4 | CC1(Oc2ncnc3c2nc(-c2ccc(OCCN4CCNCC4)cc2Cl)n3CCc2ccncc2)CC1 [Example L1, 8-(2-chloro-4-(2-(piperazin-1-yl)ethoxy)phenyl)-6-(1-methylcyclopropoxy)-9-(2-(pyridin-4-yl)ethyl)-9H-purine] | > 10
5 | CC1(Oc2ncnc3c2nc(-c2ccc(OCCN4CCNC(C)(C)C4=O)cc2Cl)n3Cc2ccccc2)CC1 [Example R16, 1-(2-(4-(9-benzyl-6-(1-methylcyclopropoxy)-9H-purin-8-yl)-3-chlorophenoxy)ethyl)-3,3-dimethylpiperazin-2-one] | 0.0631
6 | CC1(Oc2ncnc3c2nc(-c2ccc(OCCN4CCN[C@@H](CC#N)C4)cc2Cl)n3Cc2ccccc2)CC1 [Example R23, (S)-2-(4-(2-(4-(9-benzyl-6-(1-methylcyclopropoxy)-9H-purin-8-yl)-3-chlorophenoxy)ethyl)piperazin-2-yl)acetonitrile] | 0.0631

Same assay, conditions: Homo sapiens, DLD-1, DLD-1 BRCA2 −/− cells; mean; read-out: POLQ PD Prolif Lumin BRCA2 −/− mean pIC50 (converted)

Row | Structure (SMILES) | IC50 [µM]
7 | Cc1nnc(Cn2c(-c3ccc(CC(N)=O)cc3Cl)nc3c(OC4(C)CC4)ncnc32)s1 [Example T1, 2-(3-chloro-4-(9-((5-methyl-1,3,4-thiadiazol-2-yl)methyl)-6-(1-methylcyclopropoxy)-9H-purin-8-yl)phenyl)acetamide] | > 10
8 | Cc1nnc(Cn2c(-c3ccc(CC(N)=O)cc3Cl)nc3c(OC4(C)CC4)ncnc32)o1 [Example T2, 2-(3-chloro-4-(9-((5-methyl-1,3,4-oxadiazol-2-yl)methyl)-6-(1-methylcyclopropoxy)-9H-purin-8-yl)phenyl)acetamide] | > 10
9 | Cc1ccnc(Cn2c(-c3ccc(N)cc3Cl)nc3c(OC4(C)CC4)ncnc32)c1 [Example T3, 3-chloro-4-(6-(1-methylcyclopropoxy)-9-((4-methylpyridin-2-yl)methyl)-9H-purin-8-yl)aniline] | 0.2
10 | Cc1ncc(Cn2c(-c3ccc(CC(N)=O)cc3Cl)nc3c(OC4(C)CC4)ncnc32)s1 [Example T5, 2-(3-chloro-4-(6-(1-methylcyclopropoxy)-9-((2-methylthiazol-5-yl)methyl)-9H-purin-8-yl)phenyl)acetamide] | > 7.94
11 | Cc1nc(Cn2c(-c3ccc(CC(N)=O)cc3Cl)nc3c(OC4(C)CC4)ncnc32)cs1 [Example T6, 2-(3-chloro-4-(6-(1-methylcyclopropoxy)-9-((2-methylthiazol-4-yl)methyl)-9H-purin-8-yl)phenyl)acetamide] | 7.94
12 | CC1(Oc2ncnc3c2nc(-c2ccc(CC(N)=O)cc2Cl)n3CCc2nccs2)CC1 [Example T7, 2-(3-chloro-4-(6-(1-methylcyclopropoxy)-9-(2-(thiazol-2-yl)ethyl)-9H-purin-8-yl)phenyl)acetamide] | > 10
13 | CNC(=O)COc1ccc(-c2nc3c(OC4(C)CC4)ncnc3n2Cc2cncs2)c(Cl)c1 [Example T8, 2-(3-chloro-4-(6-(1-methylcyclopropoxy)-9-(thiazol-5-ylmethyl)-9H-purin-8-yl)phenoxy)-N-methylacetamide] | 5.01
14 | CC1(Oc2ncnc3c2nc(-c2ccc(C(=O)O)cc2Cl)n3Cc2cccc(Cl)c2)CC1 [Example T11, 3-chloro-4-(9-(3-chlorobenzyl)-6-(1-methylcyclopropoxy)-9H-purin-8-yl)benzoic acid] | 0.794
15 | Cc1nnccc1Cn1c(-c2ccc(CC(N)=O)cc2Cl)nc2c(OC3(C)CC3)ncnc21 [Example T17, 2-(3-chloro-4-(6-(1-methylcyclopropoxy)-9-((3-methylpyridazin-4-yl)methyl)-9H-purin-8-yl)phenyl)acetamide] | > 10
16 | Cc1cnnc(Cn2c(-c3ccc(CC(N)=O)cc3Cl)nc3c(OC4(C)CC4)ncnc32)c1 [Example T18, 2-(3-chloro-4-(6-(1-methylcyclopropoxy)-9-((5-methylpyridazin-3-yl)methyl)-9H-purin-8-yl)phenyl)acetamide] | > 10
17 | Cc1cc(Cn2c(-c3ccc(CC(N)=O)cc3Cl)nc3c(OC4(C)CC4)ncnc32)ncn1 [Example T19, 2-(3-chloro-4-(6-(1-methylcyclopropoxy)-9-((6-methylpyrimidin-4-yl)methyl)-9H-purin-8-yl)phenyl)acetamide] | > 10
18 | CC1(Oc2ncnc3c2nc(-c2ccc(CC(N)=O)cc2Cl)n3Cc2nnc(C3CC3)s2)CC1 [Example T20, 2-(3-chloro-4-(9-((5-cyclopropyl-1,3,4-thiadiazol-2-yl)methyl)-6-(1-methylcyclopropoxy)-9H-purin-8-yl)phenyl)acetamide] | 2.51
19 | CC1(Oc2ncnc3c2nc(-c2ccc(CC(N)=O)cc2Cl)n3Cc2nnc(C3CC3)o2)CC1 [Example T21, 2-(3-chloro-4-(9-((5-cyclopropyl-1,3,4-oxadiazol-2-yl)methyl)-6-(1-methylcyclopropoxy)-9H-purin-8-yl)phenyl)acetamide] | > 10
20 | COc1cnnc(Cn2c(-c3ccc(CC(N)=O)cc3Cl)nc3c(OC4(C)CC4)ncnc32)c1 [Example T22, 2-(3-chloro-4-(9-((5-methoxypyridazin-3-yl)methyl)-6-(1-methylcyclopropoxy)-9H-purin-8-yl)phenyl)acetamide] | 3.98
21 | CC1(Oc2ncnc3c2nc(-c2ccc(CC(N)=O)cc2Cl)n3Cc2nc(C3CC3)no2)CC1 [Example T23, 2-(3-chloro-4-(9-((3-cyclopropyl-1,2,4-oxadiazol-5-yl)methyl)-6-(1-methylcyclopropoxy)-9H-purin-8-yl)phenyl)acetamide] | 1.26
22 | Cc1nc(Cn2c(-c3ccc(CC(N)=O)cc3Cl)nc3c(OC4(C)CC4)ncnc32)sc1C [Example T24, 2-(3-chloro-4-(9-((4,5-dimethylthiazol-2-yl)methyl)-6-(1-methylcyclopropoxy)-9H-purin-8-yl)phenyl)acetamide] | 0.794
23 | Cc1nc(C)c(Cn2c(-c3ccc(CC(N)=O)cc3Cl)nc3c(OC4(C)CC4)ncnc32)s1 [Example T25, 2-(3-chloro-4-(9-((2,4-dimethylthiazol-5-yl)methyl)-6-(1-methylcyclopropoxy)-9H-purin-8-yl)phenyl)acetamide] | 1
24 | Cc1ncsc1CCn1c(-c2ccc(CC(N)=O)cc2Cl)nc2c(OC3(C)CC3)ncnc21 [Example T26, 2-(3-chloro-4-(6-(1-methylcyclopropoxy)-9-(2-(4-methylthiazol-5-yl)ethyl)-9H-purin-8-yl)phenyl)acetamide] | 0.316
25 | Cc1noc(C)c1Cn1c(-c2ccc(CC(N)=O)cc2Cl)nc2c(OC3(C)CC3)ncnc21 [Example T27, 2-(3-chloro-4-(9-((3,5-dimethylisoxazol-4-yl)methyl)-6-(1-methylcyclopropoxy)-9H-purin-8-yl)phenyl)acetamide] | > 10
26 | CNC(=O)COc1ccc(-c2nc3c(OC4(C)CC4)ncnc3n2Cc2ncc(C)s2)c(Cl)c1 [Example T28, 2-(3-chloro-4-(6-(1-methylcyclopropoxy)-9-((5-methylthiazol-2-yl)methyl)-9H-purin-8-yl)phenoxy)-N-methylacetamide] | 0.631
27 | CNS(=O)(=O)c1ccc(-c2nc3c(OC4(C)CC4)ncnc3n2Cc2cc(C)ccn2)c(Cl)c1 [Example T30, 3-chloro-N-methyl-4-(6-(1-methylcyclopropoxy)-9-((4-methylpyridin-2-yl)methyl)-9H-purin-8-yl)benzenesulfonamide] | 0.631
28 | Cc1cnn(C)c1Cn1c(-c2ccc(CC(N)=O)cc2Cl)nc2c(OC3(C)CC3)ncnc21 [Example T31, 2-(3-chloro-4-(9-((1,4-dimethyl-1H-pyrazol-5-yl)methyl)-6-(1-methylcyclopropoxy)-9H-purin-8-yl)phenyl)acetamide] | > 10
29 | Cc1cc(Cn2c(-c3ccc(CC(N)=O)cc3Cl)nc3c(OC4(C)CC4)ncnc32)n(C)n1 [Example T32, 2-(3-chloro-4-(9-((1,3-dimethyl-1H-pyrazol-5-yl)methyl)-6-(1-methylcyclopropoxy)-9H-purin-8-yl)phenyl)acetamide] | 2
30 | Cc1nn(C)cc1Cn1c(-c2ccc(CC(N)=O)cc2Cl)nc2c(OC3(C)CC3)ncnc21 [Example T33, 2-(3-chloro-4-(9-((1,3-dimethyl-1H-pyrazol-4-yl)methyl)-6-(1-methylcyclopropoxy)-9H-purin-8-yl)phenyl)acetamide] | > 10
31 | CC1(Oc2ncnc3c2nc(-c2ccc(CC(N)=O)cc2Cl)n3Cc2ccnc(C(F)(F)F)c2)CC1 [Example T35, 2-(3-chloro-4-(6-(1-methylcyclopropoxy)-9-((2-(trifluoromethyl)pyridin-4-yl)methyl)-9H-purin-8-yl)phenyl)acetamide] | 2.51
32 | CC1(Oc2ncnc3c2nc(-c2ccc(CC(N)=O)cc2Cl)n3Cc2cc(C(F)(F)F)ccn2)CC1 [Example T36, 2-(3-chloro-4-(6-(1-methylcyclopropoxy)-9-((4-(trifluoromethyl)pyridin-2-yl)methyl)-9H-purin-8-yl)phenyl)acetamide] | 0.501
